In patent US20230167127A1, “COMPOUNDS AND THEIR USE IN THE TREATMENT OF BACTERIAL INFECTION” (Hoffmann-La Roche Inc., priority 2020, published 2023) one finds IC50 data, which are given here for eleven molecules.

In general, IC50 refers to the concentration that gives 50% inhibition.

A value given as a limit tells only on which side of the number the result lay.

The test system of the first experiment is Escherichia coli ATCC 25922. Kind of experiment: 50% growth inhibitory concentration (IC50) determination, Iso-Sensitest broth dilution. It counts as cell-based. The note with it: Escherichia coli, ATCC25922, 16 h, strain Escherichia coli ATCC 25922; 10-point broth dilution, optical density at 600 nm over 16 h; read-out: Escherichia coli growth inhibition IC50. In a few lines: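 10-point twofold Iso-Sensitest broth dilution (e.g. 50 to 0.097 μM final) with DMSO stocks, incubated at 35±2° C. Growth followed by OD 600 nm every 20 min over 16 h; IC50 derived from growth inhibition during logarithmic phase.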
For orientation: Broth dilution looks for growth in wells or tubes with falling amounts of substance.
As to `NC1c2cccc(Cl)c2CC1CNCCc1nn(-c2cnc3c(n2)NC(=O)CO3)c(=O)o1` (racemic) [Example 337, 6-[2-oxo-5-[2-[[rac-1,2-trans-1-amino-4-chloro-2,3-dihydro-1H-inden-2-yl]methylamino]ethyl]-1,3,4-oxadiazol-3-yl]-4H-pyrazino[2,3-b][1,4]oxazin-3-one; formic acid], the IC50 turned out to be 1080 nM.
For the molecule `N#Cc1cc(OC2CNC2)cc2c1CC(CNCCC1CN(c3ccc4c(n3)NC(=O)CO4)C(=O)O1)C2` (centres unmarked) [Example 190, 6-(azetidin-3-yloxy)-2-[[2-[2-oxo-3-(3-oxo-4H-pyrido[3,2-b][1,4]oxazin-6-yl)-1,3-oxazolidin-5-yl]ethylamino]methyl]-2,3-dihydro-1H-indene-4-carbonitrile; 2,2,2-trifluoroacetic acid], the IC50 was below 97.7 nM.
On to `Cc1ncc2c(c1F)CC(CNCC[C@H]1CN(c3cnc4c(n3)NC(=O)CO4)C(=O)O1)C2` (stereo partly drawn) [Example 338, 6-[(5S)-5-[2-[(4-fluoro-3-methyl-6,7-dihydro-5H-cyclopenta[c]pyridin-6-yl)methylamino]ethyl]-2-oxo-1,3-oxazolidin-3-yl]-4H-pyrazino[2,3-b][1,4]oxazin-3-one], for which the IC50 was below 97.7 nM.
On to `CNC(=O)COc1cc(C)c2c(c1C)CC(CNCCC1CN(c3ccc4c(n3)NC(=O)CS4)C(=O)O1)C2` (centres unmarked) [Example 114, 2-[[4,7-dimethyl-2-[[2-[2-oxo-3-(3-oxo-4H-pyrido[3,2-b][1,4]thiazin-6-yl)-1,3-oxazolidin-5-yl]ethylamino]methyl]-2,3-dihydro-1H-inden-5-yl]oxy]-N-methylacetamide], for which the IC50 was 217 nM.
As to `NC1c2cccc(Cl)c2CC1CCNCC1CN(c2cnc3c(n2)NC(=O)CO3)C(=O)O1` (racemic) [Example 266, 6-[2-Oxo-5-[[2-[rac-1,2-trans-1-amino-4-chloro-2,3-dihydro-1H-inden-2-yl]ethylamino]methyl]-1,3-oxazolidin-3-yl]-4H-pyrazino[2,3-b][1,4]oxazin-3-one], the IC50 worked out at 206 nM.
Same read-out and setting: for `NC(=O)COc1cc(F)c2c(c1F)CC(CNCCC1CN(c3cnc4c(n3)NC(=O)CO4)C(=O)O1)C2` (centres unmarked) [Example 312, 2-[[4,7-difluoro-2-[[2-[2-oxo-3-(3-oxo-4H-pyrazino[2,3-b][1,4]oxazin-6-yl)-1,3-oxazolidin-5-yl]ethylamino]methyl]-2,3-dihydro-1H-inden-5-yl]oxy]acetamide] the value was below 97.7 nM; for `O=C1COc2ccc(N3C[C@@H](NC4CC(NC5Cc6cccc(F)c6C5)C4)CC3=O)nc2N1` (stereo partly drawn) [Example 24, 6-[(4S)-4-[[3-[(4-fluoro-2,3-dihydro-1H-inden-2-yl)amino]cyclobutyl]amino]-2-oxopyrrolidin-1-yl]-4H-pyrido[3,2-b][1,4]oxazin-3-one], 1810 nM.
The same measure, in the same setting: the same measure for `N#Cc1cccc2c1CC(CNCCC1CN(c3ccc4c(n3)NC(=O)CS4)C(=O)O1)C2` (centres unmarked) [Example 64, 2-[[2-[2-oxo-3-(3-oxo-4H-pyrido[3,2-b][1,4]thiazin-6-yl)-1,3-oxazolidin-5-yl]ethylamino]methyl]-2,3-dihydro-1H-indene-4-carbonitrile]: below 97.7 nM.
Take `CS(=O)(=O)NCCOc1cc(C#N)c2c(c1)CC(CNCCC1CN(c3ccc4c(n3)NC(=O)CO4)C(=O)O1)C2` (centres unmarked) [Example 115, N-[2-[[7-cyano-2-[[2-[2-oxo-3-(3-oxo-4H-pyrido[3,2-b][1,4]oxazin-6-yl)-1,3-oxazolidin-5-yl]ethylamino]methyl]-2,3-dihydro-1H-inden-5-yl]oxy]ethyl]methanesulfonamide]: the half-inhibitory concentration (IC50) was 261 nM.

Still in this experiment, the particulars now being: strain Escherichia coli ATCC 25922; 10-point broth dilution, optical density at 600 nm over 16 h; read-out: Escherichia coli growth inhibition IC50.
Turning to `Cc1ncc(C#N)c2c1CC(NCCCc1cn(-c3cnc4c(n3)NC(=O)CO4)c(=O)o1)C2` (single isomer, unassigned; enantiomer b) [Example 322, 1-Methyl-6-[3-[2-oxo-3-(3-oxo-4H-pyrazino[2,3-b][1,4]oxazin-6-yl)-1,3-oxazol-5-yl]propylamino]-6,7-dihydro-5H-cyclopenta[c]pyridine-4-carbonitrile, Enantiomer B], the IC50 was below 97.7 nM.
On to `N#Cc1cccc2c1CC(NC1CCC3(CC1)CN(c1ccc4c(n1)NC(=O)CO4)C(=O)O3)C2` (single isomer, unassigned; isomer a) [Example 39, 2-[[2-oxo-3-(3-oxo-4H-pyrido[3,2-b][1,4]oxazin-6-yl)-1-oxa-3-azaspiro[4.5]decan-8-yl]amino]-2,3-dihydro-1H-indene-4-carbonitrile, Isomer A; formic acid], for which the IC50 worked out at 737 nM.
